The record followed here is patent publication US7988776B2, “Coloring composition, thermal transfer recording ink sheet, thermal transfer recording method, color toner, inkjet ink, color filter, and azo dye” (Fujifilm Corporation, priority 2007, dated 2011).

What all share (assay type): physicochemical
The nature of data set [1]: Absorption spectrometry in ethyl acetate solution (maximum absorption wavelength). As to conditions: concentration 1×10^−6 mol/L, optical path length 10 mm. On the procedure:
The thus-obtained compounds (1), (2), (5) and (10) were analyzed absorption spectrometry in an ethyl acetate solution (concentration: 1×10^−6 mol/L, optical path length: 10 mm).

The nature of data set [2]: Dye solubility in ink sheet construction. On the set-up: key: A (easily soluble); B (soluble); C (difficult to dissolve, but soluble). As to conditions: dye-donating layer-forming coating composition, methyl ethyl ketone/toluene (1/1). An excerpt: A polyester film (Lumirror, trade name by Toray) having a thickness of 6.0 μm and processed for heat-resistant lubrication with a thermosetting acrylic resin (thickness 1 μm) on its back was used as a support.
The dye solubility was ranked in three, A (easily soluble), B (soluble) r C (difficult to dissolve, but soluble).

Data set [3] is described as follows: Light fastness of recorded images under Xe light. As to conditions: retention of status A reflection density 1.0 after Xe light (17000 lux) for 7 days. On the procedure: Next, the recorded samples were exposed to an Xe light (17000 lux) for 7 days, and tested for the light stability (light fastness) of the recorded images. After the exposure, the status A reflection density of the part of each sample having an original status A reflection density of 1.0 before the exposure was measured, and the retention (by percentage) to the reflection density of 1.0 after exposure to that before exposure indicates the image stability. With the retention percentage, the samples were ranked in three, A (from 80% to less than 100%), B (from 60% to less than 80%), C (less than 60%).

As to `C=CCN(CC=C)c1ccc(/N=N/c2c(C#N)c(C(C)(C)C)nn2S(C)(=O)=O)c(NC(C)=O)c1` [(5)], in data set [1], the “Maximum Absorption Wavelength” value was 539 nm. In addition, in data set [2], the Solubility entry is listed as “A”. Besides, the “Light Fastness” value in data set [3] is given as “A (A (from 80% to less than 100%))”.
